# In the METLIN SMRT retention time set (Domingo-Almenara et al. 2019):
# Assay: gradient 5% acetonitrile 3 min, to 50% in 2 min, to 85% in 15 min, held 3 min, 100 µL/min
# Details: column: Zorbax Extend-C18 2.1 x 50 mm; eluents: water / acetonitrile, 0.1% formic acid
# How it was run: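 Over 3 months, pure standards in mixtures of ~100 molecules were run by HPLC coupled to a quadrupole time-of-flight mass spectrometer in positive and negative ionization mode. The column was a Zorbax Extend-C18 (2.1 × 50 mm, 1.8 μm) at 100 μL/min, eluted with water and acetonitrile each holding 0.1% formic acid, with 40 μL dead and 900 μL dwell volumes. Retention time was determined from adduct peaks chosen by software and checked manually.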
row,Compound,RP-LC retention time [s]
1,COc1ccc(-c2ncc3c(n2)CCN(S(=O)(=O)c2ccc(OC)cc2)C3)cc1,991
2,CC1(C(=O)NCc2ccccc2)CCCN(C(=O)Nc2ccccc2C(F)(F)F)C1 (stereo not given),958
3,CCOc1ccccc1-c1noc(Cn2cnc3c(cnn3-c3ccc(CC)cc3)c2=O)n1,1170
4,O=C(Nc1c(F)cccc1F)N1CCc2nc(-c3ccc(F)cc3)ncc2C1,932
5,CC(C)N1CCC(c2nnc3n2CCN(S(=O)(=O)c2ccccc2C(F)(F)F)C3)C1 (stereo not given),631
6,NS(=O)(=O)c1ccc(NC(=O)C2CCCN(c3ccc(=O)n(-c4cccc(F)c4)n3)C2)cc1 (stereo not given),703
7,CNC(=O)Nc1ccc(C2(C(=O)N3CCN(c4ccccc4)CC3)CCC2)cc1,754
8,CCOCCCNC(=O)C(C)n1c(=O)c(C(F)(F)F)nc2cc(C)c(C)cc21 (stereo not given),1080
9,COc1ccc(N2CCN(C(=O)Cn3nc(C(=O)N4CCCC4)c4ccccc43)CC2)cc1,753
10,CCN(CC)c1cc(CNC(=O)Nc2cc(Cl)ccc2OC)ccn1,690
11,CCOC(=O)c1[nH]c(C)c(CCC(=O)N2CCC(C(=O)NCCc3c(C)noc3C)CC2)c1C,695
12,O=C(NCCCN1CCc2ccccc2C1)c1nnc(-c2ccc(S(=O)(=O)N3CCCC3)cc2)o1,680
13,O=C(Cn1cnc2nc(N3CCCC(C(=O)NC4CC4)C3)sc2c1=O)Nc1ccccc1Cl (stereo not given),686
14,COc1ccc(-c2nnc(Cc3nc(-c4ccc5c(c4)OCO5)no3)o2)cc1,916
15,CCCS(=O)(=O)N1CCc2ccc(NC(=O)Oc3ccccc3)cc2C1,878
16,Cc1nc2ccc3nc(NC(=O)C4CCN(S(C)(=O)=O)CC4)sc3c2s1,709
17,Cc1oc2cc3oc(=O)c(CC(=O)N[C@@H](Cc4c[nH]c5ccccc45)C(=O)O)c(C)c3cc2c1C,863
18,O=C(CN1c2ccc(F)cc2-c2ccccc2S1(=O)=O)Nc1cccnc1,681
19,O=C(NCc1ccccc1)N1[C@H]2CC[C@@H]1c1cnc(-c3ccccc3)nc1C2,865
20,Cc1ccc(Cn2cc(-c3noc(-c4cccc(N(C)C)c4)n3)nn2)cc1,1100
21,O=C(CC1CCCC1)NCc1cccnc1-c1ccc(F)cc1,674
22,Nc1nnc(Cc2ccc3c(c2)OCCO3)o1,589

row,Compound,RP-LC retention time [s]
1,Cc1ccc(C(CNC(=O)c2cc(-c3ccc4c(c3)CCCC4)on2)N2CCN(C)CC2)o1 (stereo not given),838
2,COc1cc(C(=O)NCCc2csc(-c3ccc(Cl)cc3)n2)c([N+](=O)[O-])cc1OC,895
3,CCS(=O)(=O)c1nc2ccc(NS(=O)(=O)c3c(C)cc(C)cc3C)cc2s1,958
4,Cc1ccn2cc(-c3ccc(NC(=O)CCCc4ccccc4)cc3)nc2n1,694
5,Cc1ccc(-n2c(=O)c3c(cc(C)n3C)n(CC(=O)Nc3ccccc3)c2=O)cc1,834
6,Cc1ccc(NC(=O)N2CCC(C(C)C(=O)Nc3ccc(C)cc3Cl)CC2)cc1 (stereo not given),950
7,CCCC(=O)Nc1nc2ccc(CCC(=O)Nc3ccc(CC)cc3)cc2s1,952
8,CCNC(=O)N1CC=C(C(=O)Nc2ccc(F)cc2)CC1,672
9,CCc1ccc(OCc2nc(C)c(C(=O)Nc3nc(-c4ccc(OC)cc4)cs3)s2)cc1,1290
10,CCCNc1cc(N2CCC(CCC(=O)NCCc3cccs3)CC2)ncn1,662
11,Cc1cccc(Oc2nccn3c(=O)n(CC(=O)NCCCc4ccccc4)nc23)c1C,944
12,CC(C)C(=O)Nc1ccc2nc(N3CCN(c4cccc(Cl)c4)CC3)cc(C(=O)O)c2c1,883
13,CN(C)c1ccc(C(=O)NCc2nn(C)c3ccccc23)cc1,778
14,COc1ccc(NC(=O)Cn2nc3nc(N4CCCC(C)C4)ccn3c2=O)cc1OC (stereo not given),844
15,Cc1cccc(NC(=O)C2CCCN(c3ccc(=O)n(-c4cccc(Cl)c4)n3)C2)c1C (stereo not given),960
16,COc1cccc(Nc2nc3ccncc3n(C(C)C)c2=O)c1,680
17,COc1ccccc1CNc1nc2ccccc2nc1NS(=O)(=O)c1cccs1,1050
18,O=C1CC(c2nc(-c3ccc(Cl)cc3)no2)CN1c1ccc(F)cc1 (stereo not given),1000
19,CC(C(=O)NCCCN1CCN(C)CC1)n1c(=O)c(C(F)(F)F)nc2ccccc21 (stereo not given),603
20,CCc1ccc(S(=O)(=O)N2CCC3(CC2)NCCN=C3NCc2cccc(OC)c2)cc1,775
21,Cc1ccc(NC(=O)N2CCc3nc(-c4ccc(F)cc4)ncc3C2)c(C)c1,979
22,Fc1ccc(C2CCNCC2COc2ccc3c(c2)OCO3)cc1 (stereo not given),778

row,Compound,RP-LC retention time [s]
1,COc1cccc2sc(NC(=O)Cc3ccc(Cl)s3)nc12,923
2,Cc1ccc(F)c(NC(=O)C2CCc3nc(N4CCOCC4)ncc3C2)c1 (stereo not given),735
3,CC1CCN(c2ccc(NC(=O)CN3C(=O)CN(C)C(=O)c4ccccc43)cc2)CC1,671
4,Cc1nnc(NC(=O)CSc2cc(N3CCCC3)ncn2)s1,577
5,Cc1ccc(-c2noc(Cn3ccn(-c4ccccc4)c(=O)c3=O)n2)cc1C,897
6,Cn1c(N2CCCC(C(=O)NCc3ccc(F)cc3)C2)cc(=O)n(C)c1=O (stereo not given),680
7,CCOC(=O)C1CCN(C(=O)C2c3cc(OC)c(OC)cc3C(=O)N(C)C2c2cccs2)CC1 (stereo not given),728
8,COc1ccc(N2CCN(C3CC(=O)N(Cc4ccc(N5CCCC5=O)cc4)C3=O)CC2)cc1 (stereo not given),662
9,CCc1ccccc1NC(=O)N1CCN(c2cc(C)nc(N3CCOCC3)n2)CC1,695
10,Cc1nc(N2CCOCC2)c2c(C)c(C(=O)Nc3cccc(Cl)c3C)sc2n1,885
11,Cc1ccc(NC(=O)C(C)Oc2ccc(F)cc2)cc1C (stereo not given),956
12,Cn1cc(CCN2CCC(C(=O)NCC3CCCCC3)CC2)c2cccnc21,619
13,Cc1noc(C)c1CN1CCN(C(=O)c2ccc3ccccc3n2)CC1,588
14,c1ccc2c(CC3=NCCN3)cccc2c1,619
15,O=C(CCc1ccccc1)Nc1nc(-c2cccc3ccccc23)cs1,1170
16,Cc1oc(-c2ccc(NC(=O)Cc3ccccc3Cl)cc2)nc1Cn1cccn1,899
17,COCCNC(=O)N1CCC(c2nnc(C(F)(F)F)o2)CC1,616
18,CCn1c(CCC(=O)NCc2ccc(Cl)cc2)nc2ccccc2c1=O,812
19,CCCN1C(=O)COc2cc(-c3noc(C(=O)NC(C)CC)n3)ccc21 (stereo not given),950
20,CCc1nc2c(NC(=O)c3ccc(C(F)(F)F)cc3)cccn2n1,957
21,Cc1ccc(CN2CCC(CNS(=O)(=O)c3ccc4c(c3)CCCC(=O)N4)CC2)cc1,762
